This test addresses Cell division control protein 42 homolog (Homo sapiens) (UniProt P60953). Put plainly: Cdc42 activation blockers via PAK binding – biochemical, purified His-Cdc42, PAK-PBD pull-down, Western blot, orthogonal assay for Ras-related GTPase inhibitor project, late-stage follow-up (AID 2374). Conditions: His-Cdc42 GTPgS loading, at 10 µM, stronger effect = higher value.

Each structure is given as a SMILES string.

Sequence of Cell division control protein 42 homolog (Homo sapiens) (P60953 whole entry, looked up): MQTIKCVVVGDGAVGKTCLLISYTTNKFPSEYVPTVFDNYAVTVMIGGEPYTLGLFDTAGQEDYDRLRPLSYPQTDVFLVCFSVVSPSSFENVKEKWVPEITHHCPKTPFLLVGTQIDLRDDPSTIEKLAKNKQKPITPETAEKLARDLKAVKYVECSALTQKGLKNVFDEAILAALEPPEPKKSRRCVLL

On to `COc1ccc(C2CC(c3ccccc3)=NN2c2ccc(S(N)(=O)=O)cc2)cc1` (stereo not drawn), for which the inhibition (in general, the drop in the measured response relative to a control, in per cent) is 60%. The inhibition (at 0.1 uM GTPgS) came to 96%. The inhibition (at 0.5 uM GTPgS) was 94%.

For the origin of these results see PubChem BioAssay AID2374 (NMMLSC, 2010).
